Molecules are shown by their SMILES.

The test system of one data set is K562. The experiment in a line: Antiproliferative activity against human K562 cells assessed as cell viability after 72 hrs by CellTiter-Glo or CCK-8 assay. It counts as functional. The conditions noted are these: K562, 72 h.
Data set [1] in a line: Antiproliferative activity against human MOLM14 cells assessed as cell viability after 72 hrs by CellTiter-Glo or CCK-8 assay. It counts as functional. The conditions noted are these: MOLM-14, 72 h. For orientation: In ATP-based viability assays light output follows the ATP content of the culture.
Data set [2] has as its target T1, Discoidin domain-containing receptor 2 (Homo sapiens) (UniProt Q16832).
T1 sequence (whole entry): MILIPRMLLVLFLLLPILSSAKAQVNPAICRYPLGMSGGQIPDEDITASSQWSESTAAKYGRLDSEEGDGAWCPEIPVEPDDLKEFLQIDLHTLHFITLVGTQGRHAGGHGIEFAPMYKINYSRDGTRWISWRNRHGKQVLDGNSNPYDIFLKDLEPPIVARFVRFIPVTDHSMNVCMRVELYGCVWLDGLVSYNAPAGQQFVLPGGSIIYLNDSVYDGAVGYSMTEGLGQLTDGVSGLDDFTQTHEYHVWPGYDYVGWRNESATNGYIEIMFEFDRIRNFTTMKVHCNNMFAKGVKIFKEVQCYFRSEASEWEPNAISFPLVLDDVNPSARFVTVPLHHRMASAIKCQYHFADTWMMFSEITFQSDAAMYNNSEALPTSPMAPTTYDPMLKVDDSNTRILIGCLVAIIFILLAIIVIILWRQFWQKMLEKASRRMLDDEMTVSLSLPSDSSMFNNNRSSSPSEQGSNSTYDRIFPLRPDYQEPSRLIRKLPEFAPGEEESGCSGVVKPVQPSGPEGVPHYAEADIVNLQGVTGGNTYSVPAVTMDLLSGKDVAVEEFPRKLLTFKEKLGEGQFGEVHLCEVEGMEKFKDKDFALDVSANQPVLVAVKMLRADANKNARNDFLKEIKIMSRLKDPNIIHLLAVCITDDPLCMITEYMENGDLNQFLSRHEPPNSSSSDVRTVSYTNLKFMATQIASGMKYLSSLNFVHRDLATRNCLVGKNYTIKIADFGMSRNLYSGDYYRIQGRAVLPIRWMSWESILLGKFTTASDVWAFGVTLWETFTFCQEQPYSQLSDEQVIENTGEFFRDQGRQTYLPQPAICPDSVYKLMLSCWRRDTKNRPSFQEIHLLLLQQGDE
The conditions noted are these: BaF3.
Description: Inhibition of TEL-DDR2 (unknown origin) expressed in mouse BA/F3 cells assessed as growth inhibition after 72 hrs by CellTiter-Glo or CCK-8 assay

The target of data set [3] is Tyrosine-protein kinase HCK (Homo sapiens) (UniProt P08631). The conditions noted are these: BaF3.
Sequence of Tyrosine-protein kinase HCK (Homo sapiens) (P08631 2-526 limits assumed): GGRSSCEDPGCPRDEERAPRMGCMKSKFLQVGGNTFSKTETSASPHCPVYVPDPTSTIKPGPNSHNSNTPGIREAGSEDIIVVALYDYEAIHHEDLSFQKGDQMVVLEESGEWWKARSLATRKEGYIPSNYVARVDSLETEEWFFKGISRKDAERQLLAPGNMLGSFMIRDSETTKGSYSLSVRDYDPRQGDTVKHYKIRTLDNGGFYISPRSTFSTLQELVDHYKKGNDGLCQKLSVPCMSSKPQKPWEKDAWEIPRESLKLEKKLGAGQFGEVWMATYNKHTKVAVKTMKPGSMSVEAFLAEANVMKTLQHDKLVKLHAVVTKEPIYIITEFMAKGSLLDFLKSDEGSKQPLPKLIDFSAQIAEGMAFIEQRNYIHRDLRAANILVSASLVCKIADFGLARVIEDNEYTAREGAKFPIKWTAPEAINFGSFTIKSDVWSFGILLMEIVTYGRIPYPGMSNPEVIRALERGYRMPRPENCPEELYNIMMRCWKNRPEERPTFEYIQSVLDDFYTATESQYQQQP
Description: Inhibition of TEL-HCK (unknown origin) expressed in mouse BA/F3 cells assessed as growth inhibition after 72 hrs by CellTiter-Glo or CCK-8 assay
Another data set concerns HEL. Description: Antiproliferative activity against human HEL cells assessed as cell viability after 72 hrs by CellTiter-Glo or CCK-8 assay. It counts as functional.
The subject of data set [4] is BaF3. The following applies: Homo sapiens.
Description: Inhibition of BCR/ABL p210-E255K mutant (unknown origin) expressed in mouse BA/F3 cells assessed as growth inhibition after 72 hrs by CellTiter-Glo or CCK-8 assay
Data set [5] in a line: Antiproliferative activity against mouse BA/F3 cells assessed as cell viability after 72 hrs by CellTiter-Glo or CCK-8 assay. It counts as cell-based, BaF3.
The nature of data set [6]: Antiproliferative activity against […] CHL cells assessed as cell viability after 72 hrs by CellTiter-Glo or CCK-8 assay. The conditions noted are these: chinese hamster. It counts as cell-based, Cricetulus griseus.
The subject of the next data set is MV4-11. The experiment in a line: Antiproliferative activity against human MV4-11 cells assessed as cell viability after 72 hrs by CellTiter-Glo or CCK-8 assay. It counts as functional. The conditions noted are these: MV4-11, 72 h.
The nature of data set [7]: Antiproliferative activity against human KU812 cells assessed as cell viability after 72 hrs by CellTiter-Glo or CCK-8 assay. It counts as functional. The conditions noted are these: KU812, 72 h.
The nature of data set [8]: Antiproliferative activity against human MEG01 cells assessed as cell viability after 72 hrs by CellTiter-Glo or CCK-8 assay. It counts as functional. The conditions noted are these: MEG-01, 72 h.
Data set [9] concerns the target Epithelial discoidin domain-containing receptor 1 (Homo sapiens, UniProt Q08345). The conditions noted are these: BaF3.
Description: Inhibition of TEL-DDR1 (unknown origin) expressed in mouse BA/F3 cells assessed as growth inhibition after 72 hrs by CellTiter-Glo or CCK-8 assay
Data set [10] addresses Tyrosine-protein kinase Blk (Homo sapiens) (UniProt P51451). The conditions noted are these: BaF3.
Description: Inhibition of TEL-BLK (unknown origin) expressed in mouse BA/F3 cells assessed as growth inhibition after 72 hrs by CellTiter-Glo or CCK-8 assay
Data set [11] deals with BaF3. The conditions noted are these: Homo sapiens. The source holds these as a separate data set.
Description: Inhibition of BCR/ABL p210-T315I mutant (unknown origin) expressed in mouse BA/F3 cells assessed as growth inhibition after 72 hrs by CellTiter-Glo or CCK-8 assay
Data set [12] relates to BaF3. The following applies: Homo sapiens. The source holds these as a separate data set.
Description: Inhibition of BCR/ABL p210-F317I mutant (unknown origin) expressed in mouse BA/F3 cells assessed as growth inhibition after 72 hrs by CellTiter-Glo or CCK-8 assay
Data set [13] is described as follows: Antiproliferative activity against human U937 cells assessed as cell viability after 72 hrs by CellTiter-Glo or CCK-8 assay. It counts as functional. The conditions noted are these: U-937, 72 h.
The target of data set [14] is Proto-oncogene tyrosine-protein kinase Src (Homo sapiens, UniProt P12931). The conditions noted are these: BaF3.
Sequence of Proto-oncogene tyrosine-protein kinase Src (P12931 2-536 limits assumed): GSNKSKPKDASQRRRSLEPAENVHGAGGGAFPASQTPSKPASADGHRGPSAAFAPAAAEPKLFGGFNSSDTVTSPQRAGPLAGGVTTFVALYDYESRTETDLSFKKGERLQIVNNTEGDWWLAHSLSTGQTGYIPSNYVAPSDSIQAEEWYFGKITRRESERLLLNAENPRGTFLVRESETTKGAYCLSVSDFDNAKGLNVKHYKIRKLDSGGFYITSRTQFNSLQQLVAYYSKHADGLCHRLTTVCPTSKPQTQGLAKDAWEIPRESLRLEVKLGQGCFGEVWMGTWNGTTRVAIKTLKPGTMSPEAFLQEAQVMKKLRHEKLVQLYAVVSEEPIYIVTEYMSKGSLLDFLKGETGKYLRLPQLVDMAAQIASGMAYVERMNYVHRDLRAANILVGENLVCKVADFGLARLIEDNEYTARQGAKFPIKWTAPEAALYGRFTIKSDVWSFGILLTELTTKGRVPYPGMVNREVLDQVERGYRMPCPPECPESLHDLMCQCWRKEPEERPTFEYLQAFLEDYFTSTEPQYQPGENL
Description: Inhibition of TEL-SRC (unknown origin) expressed in mouse BA/F3 cells assessed as growth inhibition after 72 hrs by CellTiter-Glo or CCK-8 assay
Data set [15] has as its target Tyrosine-protein kinase Lck (Homo sapiens) (UniProt P06239). The following applies: BaF3.
Description: Inhibition of TEL-LCK (unknown origin) expressed in mouse BA/F3 cells assessed as growth inhibition after 72 hrs by CellTiter-Glo or CCK-8 assay
For data set [16], the target named is Bcr/Abl fusion protein (Homo sapiens) (UniProt P00519+P11274). The following applies: BaF3.
Sequence of Bcr/Abl fusion protein (Homo sapiens) (P00519 whole entry, looked up, the tested form may be a part): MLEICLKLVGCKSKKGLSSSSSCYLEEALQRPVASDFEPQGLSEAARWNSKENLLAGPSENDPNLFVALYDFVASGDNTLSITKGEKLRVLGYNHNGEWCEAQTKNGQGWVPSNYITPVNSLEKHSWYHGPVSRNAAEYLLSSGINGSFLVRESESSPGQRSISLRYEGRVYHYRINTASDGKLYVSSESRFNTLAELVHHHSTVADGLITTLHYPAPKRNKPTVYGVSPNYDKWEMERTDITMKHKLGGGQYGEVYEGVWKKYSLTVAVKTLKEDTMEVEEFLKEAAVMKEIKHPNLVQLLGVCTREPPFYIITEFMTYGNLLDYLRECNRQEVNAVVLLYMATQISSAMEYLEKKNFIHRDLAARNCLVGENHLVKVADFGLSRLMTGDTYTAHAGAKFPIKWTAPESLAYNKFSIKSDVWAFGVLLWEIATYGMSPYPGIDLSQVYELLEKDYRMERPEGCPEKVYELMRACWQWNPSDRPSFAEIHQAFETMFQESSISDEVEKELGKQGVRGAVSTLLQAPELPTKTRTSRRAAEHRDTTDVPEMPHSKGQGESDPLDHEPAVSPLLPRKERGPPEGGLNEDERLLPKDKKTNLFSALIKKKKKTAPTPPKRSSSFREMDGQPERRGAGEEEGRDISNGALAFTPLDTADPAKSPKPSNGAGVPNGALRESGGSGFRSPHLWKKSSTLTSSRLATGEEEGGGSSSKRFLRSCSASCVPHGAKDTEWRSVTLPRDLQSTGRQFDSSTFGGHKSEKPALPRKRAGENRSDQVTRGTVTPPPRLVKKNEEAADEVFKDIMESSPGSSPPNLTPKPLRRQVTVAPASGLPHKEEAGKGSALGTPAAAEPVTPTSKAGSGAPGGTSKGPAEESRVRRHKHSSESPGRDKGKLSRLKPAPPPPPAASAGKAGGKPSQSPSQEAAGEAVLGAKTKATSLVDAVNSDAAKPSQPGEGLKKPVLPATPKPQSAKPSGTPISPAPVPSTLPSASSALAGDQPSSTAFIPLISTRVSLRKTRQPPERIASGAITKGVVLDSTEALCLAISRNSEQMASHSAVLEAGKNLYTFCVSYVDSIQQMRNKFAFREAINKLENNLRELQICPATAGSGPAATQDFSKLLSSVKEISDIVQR
Sequence of Bcr/Abl fusion protein (Homo sapiens) (P11274 whole entry, looked up, the tested form may be a part): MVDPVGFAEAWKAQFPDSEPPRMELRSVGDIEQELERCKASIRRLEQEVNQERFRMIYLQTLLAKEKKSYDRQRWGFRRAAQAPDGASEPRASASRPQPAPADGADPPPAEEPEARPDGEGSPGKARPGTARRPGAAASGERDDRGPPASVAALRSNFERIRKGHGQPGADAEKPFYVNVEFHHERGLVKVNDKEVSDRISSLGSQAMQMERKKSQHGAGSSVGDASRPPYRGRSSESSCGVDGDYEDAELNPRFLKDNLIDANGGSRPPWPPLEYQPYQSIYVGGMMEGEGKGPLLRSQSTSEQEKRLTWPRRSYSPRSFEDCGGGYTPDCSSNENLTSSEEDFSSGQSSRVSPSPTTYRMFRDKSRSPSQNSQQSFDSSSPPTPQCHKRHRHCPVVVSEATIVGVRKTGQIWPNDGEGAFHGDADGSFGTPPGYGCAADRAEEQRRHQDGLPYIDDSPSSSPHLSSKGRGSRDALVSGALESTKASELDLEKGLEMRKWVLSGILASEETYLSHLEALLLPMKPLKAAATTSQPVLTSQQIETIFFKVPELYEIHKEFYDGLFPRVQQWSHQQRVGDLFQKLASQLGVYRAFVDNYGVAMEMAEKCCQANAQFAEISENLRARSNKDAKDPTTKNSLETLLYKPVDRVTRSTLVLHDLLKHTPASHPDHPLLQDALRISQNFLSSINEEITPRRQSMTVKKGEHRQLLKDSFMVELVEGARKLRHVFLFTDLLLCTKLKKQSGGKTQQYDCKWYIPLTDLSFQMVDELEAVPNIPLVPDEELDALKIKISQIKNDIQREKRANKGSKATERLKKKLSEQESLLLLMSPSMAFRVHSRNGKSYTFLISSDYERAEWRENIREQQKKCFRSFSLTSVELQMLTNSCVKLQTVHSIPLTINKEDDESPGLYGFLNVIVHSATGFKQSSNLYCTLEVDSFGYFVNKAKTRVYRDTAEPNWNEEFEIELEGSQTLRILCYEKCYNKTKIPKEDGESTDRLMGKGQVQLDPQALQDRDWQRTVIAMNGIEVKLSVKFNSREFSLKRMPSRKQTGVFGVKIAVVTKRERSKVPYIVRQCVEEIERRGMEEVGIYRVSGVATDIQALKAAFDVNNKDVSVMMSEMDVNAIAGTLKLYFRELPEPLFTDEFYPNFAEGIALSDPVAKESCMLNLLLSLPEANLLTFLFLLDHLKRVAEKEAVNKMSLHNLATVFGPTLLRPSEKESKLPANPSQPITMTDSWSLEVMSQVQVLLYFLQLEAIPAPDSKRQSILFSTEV
Description: Inhibition of BCR/ABL p210 (unknown origin) expressed in mouse BA/F3 cells assessed as growth inhibition after 72 hrs by CellTiter-Glo or CCK-8 assay
The target of data set [17] is Transcription factor ETV6/Tyrosine-protein kinase ABL1 (Homo sapiens) (UniProt P00519+P41212). The following applies: BaF3.
Sequence of Transcription factor ETV6/Tyrosine-protein kinase ABL1 (Homo sapiens) (P00519 whole entry, looked up): as the sequence (P00519 whole entry, looked up, the tested form may be a part) above
Sequence of Transcription factor ETV6/Tyrosine-protein kinase ABL1 (Homo sapiens) (P41212 whole entry, looked up): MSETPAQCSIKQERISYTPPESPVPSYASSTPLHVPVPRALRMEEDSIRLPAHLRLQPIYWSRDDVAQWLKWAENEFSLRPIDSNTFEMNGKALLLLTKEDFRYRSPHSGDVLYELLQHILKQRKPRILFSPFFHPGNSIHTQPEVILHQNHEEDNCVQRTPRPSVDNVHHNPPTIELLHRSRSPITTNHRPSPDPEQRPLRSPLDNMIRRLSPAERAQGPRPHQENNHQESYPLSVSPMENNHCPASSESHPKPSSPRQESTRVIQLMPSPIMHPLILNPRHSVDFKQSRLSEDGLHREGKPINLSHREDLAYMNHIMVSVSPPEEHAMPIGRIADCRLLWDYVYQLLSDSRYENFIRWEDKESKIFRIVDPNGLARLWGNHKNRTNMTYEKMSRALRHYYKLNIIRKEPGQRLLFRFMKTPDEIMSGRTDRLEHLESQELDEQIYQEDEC
Description: Inhibition of Tel-ABL (unknown origin) expressed in mouse BA/F3 cells assessed as cell growth inhibition after 72 hrs by CellTiter-Glo or CCK-8 assay

Sequence of Tyrosine-protein kinase Blk (Homo sapiens) (P51451 2-505 limits assumed): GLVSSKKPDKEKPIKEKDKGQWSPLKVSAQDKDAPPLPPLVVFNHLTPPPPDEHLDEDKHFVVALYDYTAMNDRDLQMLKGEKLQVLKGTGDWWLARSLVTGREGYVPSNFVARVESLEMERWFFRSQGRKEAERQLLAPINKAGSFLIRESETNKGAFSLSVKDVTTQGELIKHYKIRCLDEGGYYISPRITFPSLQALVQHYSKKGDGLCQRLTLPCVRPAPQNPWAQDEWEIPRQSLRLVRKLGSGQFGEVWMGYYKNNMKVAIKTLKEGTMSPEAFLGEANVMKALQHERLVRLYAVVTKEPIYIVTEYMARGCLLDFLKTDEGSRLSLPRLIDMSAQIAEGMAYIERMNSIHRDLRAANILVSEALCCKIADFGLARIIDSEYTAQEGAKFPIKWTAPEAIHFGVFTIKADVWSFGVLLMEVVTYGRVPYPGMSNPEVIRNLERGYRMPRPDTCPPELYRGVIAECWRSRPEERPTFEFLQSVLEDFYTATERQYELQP
Sequence of Tyrosine-protein kinase Lck (Homo sapiens) (P06239 2-509 limits assumed): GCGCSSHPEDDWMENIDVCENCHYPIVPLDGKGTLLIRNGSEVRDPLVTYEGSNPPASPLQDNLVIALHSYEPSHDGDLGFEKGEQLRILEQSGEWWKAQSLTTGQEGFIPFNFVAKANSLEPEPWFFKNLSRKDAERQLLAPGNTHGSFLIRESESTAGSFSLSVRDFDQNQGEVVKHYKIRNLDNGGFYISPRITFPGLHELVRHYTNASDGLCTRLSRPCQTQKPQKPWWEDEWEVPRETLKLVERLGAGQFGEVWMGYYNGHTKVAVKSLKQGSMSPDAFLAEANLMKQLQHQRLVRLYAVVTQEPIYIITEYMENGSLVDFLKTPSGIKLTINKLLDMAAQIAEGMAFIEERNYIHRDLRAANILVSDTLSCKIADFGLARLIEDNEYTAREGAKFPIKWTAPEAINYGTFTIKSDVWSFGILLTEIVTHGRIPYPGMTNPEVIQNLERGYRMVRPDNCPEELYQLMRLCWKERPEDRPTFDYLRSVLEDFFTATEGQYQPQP

As usually defined, the GI50 is the concentration giving 50% growth inhibition. `Cc1nc(Nc2ncc(C(=O)Nc3c(C)cccc3Cl)s2)cc(N2CCN(CCO)CC2)n1` [DASATINIB]: the GI50 in the data set with K562 was below 0.0003 µM; in data set [1], 2.3 µM; in data set [2] it was 3 µM; in [3] it was 0.039 µM; in the data set with HEL it was 5.3 µM; in the data set with BaF3 [4], 0.017 µM. The GI50 was 3.6 µM in the data set with MV4-11; below 0.0003 µM in data set [7]; below 0.0003 µM in data set [8]; 3 µM in [9]; 0.005 µM in data set [10]; 9.94 µM in the data set on BaF3 [11]. Also, the GI50 in the data set on BaF3 [12] is 0.01 µM; in data set [13] it was above 10 µM. Moreover, the GI50 at 72 h in [5] is above 10 µM; in data set [6], 0.27 µM.
For the compound `Cc1ccc(NC(=O)c2ccc(CN3CCN(C)CC3)cc2)cc1Nc1nccc(-c2cccnc2)n1` [IMATINIB], the GI50 in the data set on K562 is 0.14 µM; in [1] it was above 10 µM; in data set [2], 7.7 µM; in data set [3] it was 9.7 µM; in the data set with HEL it was 5.3 µM; in the data set with BaF3 [4] it was 1.93 µM. For the same compound, the GI50 in the data set on MV4-11 is above 10 µM; in [7] it was 0.16 µM; in data set [8], 0.24 µM; in data set [10], 4.1 µM; with BaF3 [11] it was above 10 µM; in the data set with BaF3 [12] it was 0.855 µM. The GI50 in data set [13] was above 10 µM. Moreover, the figures for the GI50 at 72 h in data set [5] and in [6] were 6.7 µM and above 10 µM, respectively.
Consider `Cc1cn(-c2cc(NC(=O)c3ccc(C)c(Nc4nccc(-c5cccnc5)n4)c3)cc(C(F)(F)F)c2)cn1` [NILOTINIB], for which the GI50 in the data set on K562 is 0.002 µM; in [1], above 10 µM; in data set [2], 1.4 µM; in data set [14] it was 0.47 µM; in [3], 4.1 µM; with HEL, 3.9 µM. The GI50 in data set [15] was 0.87 µM; with BaF3 [4] it was 0.021 µM; in the data set on MV4-11, above 10 µM; in data set [7], 0.001 µM; in [8], 0.016 µM; in data set [10] it was 1.3 µM. For the same compound, the GI50 was above 10 µM in the data set with BaF3 [11], 0.0546 µM with BaF3 [12] and above 10 µM in data set [13]. The concentration for 50% growth inhibition (GI50) at 72 h in data set [5] was determined as 2.1 µM; in data set [6], 4.2 µM.
With `Cc1ccc(NC(=O)c2cccc(C(F)(F)F)c2)cc1N1Cc2cnc(OC3CCNCC3)nc2N(C)C1=O`, the figures for the GI50 (in the data set on K562; in data set [16]; in [17]) were 0.22 µM, 2.71 µM and 2.04 µM, respectively. Also, in data set [5], the GI50 at 72 h was above 10 µM.
Take `CNc1nc(Nc2ccc(C)c(N)c2)ncc1C(=O)Nc1cc(NC(=O)c2cccc(OC)c2)ccc1C`: the GI50 in the data set with K562 was found to be 0.33 µM; in data set [16], 0.57 µM; in data set [17], 0.524 µM. For the same compound, in [5], the GI50 at 72 h was above 10 µM.

The record behind these values is ChEMBL document CHEMBL3779840, “Discovery of 2-((3-Amino-4-methylphenyl)amino)-N-(2-methyl-5-(3-(trifluoromethyl)benzamido)phenyl)-4-(methylamino)pyrimidine-5-carboxamide (CHMFL-ABL-053) as a Potent, Selective, and Orally Available BCR-ABL/SRC/p38 Kinase Inhibitor for Chronic Myeloid Leukemia” (J Med Chem, 2016).
